The source of these data is publication PMC12298423, “Characterization of Novel ACE-Inhibitory Peptides from Nemopilema nomurai Jellyfish Venom Hydrolysate: In Vitro and In Silico Approaches” (Marine Drugs, 2025).

Peptide text beside a SMILES is read from it.

Data set [1] concerns the target T1, angiotensin-converting enzyme (ACE) (Homo sapiens, UniProt P12821).
T1 construct: purchased Dojindo Laboratories, Kumamoto, Japan
The data set is described as follows: ACE-inhibitory activity, ACE Kit-WST (Dojindo). Format: biochemical. Particulars: peptide 0.01-1000 µM, 37 °C 1 h, absorbance 450 nm, triplicate, read-out: IC50 (ACE inhibition). The procedure:
The ACE-inhibitory activity of the peptides was evaluated in vitro using the Dojindo assay kit, following the same procedure as described in our previous study. […] Captopril was used as a positive control to validate the assay system. To assess the stability of the peptides under simulated gastrointestinal (GI) conditions, a two-step enzymatic hydrolysis was conducted. The ACE-inhibitory activity of the peptides was measured both before and after digestion (Figure 1B,C).
The ACE-inhibitory activity of the peptides was assessed using the ACE Kit-WST (Dojindo Laboratories, Kumamoto, Japan) following the manufacturer’s protocol. Both peptides were dissolved in distilled water, and serial dilutions were prepared at concentrations of 0.01, 0.10, 1, 10, 100, and 1000 µM. Captopril was used as the positive control. For the assay, 20 µL of each sample solution was added to the designated wells, including the sample, blank 1, and blank 2 wells. Subsequently, 20 µL of substrate buffer was added to all wells. […] Absorbance was measured at 450 nm using a microplate reader. ACE-inhibitory activity was calculated using the following equation:ACE inhibition (%) = (Ablank1 − Asample)/(Ablank1 − Ablank2) × 100 where Ablank1 is the absorbance of the control (without inhibitor), Ablank2 is the absorbance of the reagent alone, and Asample is the absorbance of the peptide-treated sample.

Data set [2] addresses ACE (Homo sapiens, UniProt P12821). The data set is described as follows: Lineweaver–Burk plot and secondary plot (ACE inhibition kinetics). In kind it is biochemical. The following applies: secondary plot from Lineweaver–Burk plots; substrate HHL 0.625 to 20 mM. As to the method: The inhibition pattern of the peptides against ACE was analyzed using Lineweaver–Burk plots. ACE activity was measured at varying concentrations of each peptide (IGDEPRHQYL: 0, 5, and 10 µM; IVGRPLANG: 0, 20, and 40 µM) in the presence of different concentrations of the substrate hippuryl-histidyl-leucine (HHL), ranging from 0.625 to 20 mM. The Michaelis constant (Km) and maximum reaction velocity (Vmax) were calculated from the slope and y-intercept of the Lineweaver–Burk plots. Additionally, secondary plots were generated to determine the inhibition constant (Ki) values for each peptide based on the derived Km and Vmax values.

Data set [3] concerns pepsin, trypsin and chymotrypsin. The data set is described as follows: Resistance to simulated GI digestion assay. Particulars: peptide 100 and 200 µM; pepsin 0.01% pH 2.0, 37 °C, 3 h, then trypsin and chymotrypsin each 0.01% pH 7.5, 3 h; read-out ACE-inhibitory activity; triplicate. Format: in vitro ADME. As to the method:
The stability of the synthesized peptides against gastrointestinal proteases was evaluated using a slightly modified method based on Dong et al. (2024). Peptide solutions at concentrations of 100 and 200 µM were sequentially subjected to enzymatic digestion. Initially, the peptides were incubated with pepsin (0.01%, pH 2.0) at 37 °C for 3 h. This was followed by a second digestion step with trypsin and chymotrypsin (each at 0.01%, pH 7.5) for an additional 3 h under the same temperature conditions. To terminate enzymatic activity, the reaction mixtures were boiled for 10 min. The samples were then centrifuged at 8000× g for 15 min, and the resulting supernatants were collected. The ACE-inhibitory activity of the digested peptide solutions was subsequently analyzed to assess their enzymatic stability.

T1 sequence (P12821 30-1306, species assumed): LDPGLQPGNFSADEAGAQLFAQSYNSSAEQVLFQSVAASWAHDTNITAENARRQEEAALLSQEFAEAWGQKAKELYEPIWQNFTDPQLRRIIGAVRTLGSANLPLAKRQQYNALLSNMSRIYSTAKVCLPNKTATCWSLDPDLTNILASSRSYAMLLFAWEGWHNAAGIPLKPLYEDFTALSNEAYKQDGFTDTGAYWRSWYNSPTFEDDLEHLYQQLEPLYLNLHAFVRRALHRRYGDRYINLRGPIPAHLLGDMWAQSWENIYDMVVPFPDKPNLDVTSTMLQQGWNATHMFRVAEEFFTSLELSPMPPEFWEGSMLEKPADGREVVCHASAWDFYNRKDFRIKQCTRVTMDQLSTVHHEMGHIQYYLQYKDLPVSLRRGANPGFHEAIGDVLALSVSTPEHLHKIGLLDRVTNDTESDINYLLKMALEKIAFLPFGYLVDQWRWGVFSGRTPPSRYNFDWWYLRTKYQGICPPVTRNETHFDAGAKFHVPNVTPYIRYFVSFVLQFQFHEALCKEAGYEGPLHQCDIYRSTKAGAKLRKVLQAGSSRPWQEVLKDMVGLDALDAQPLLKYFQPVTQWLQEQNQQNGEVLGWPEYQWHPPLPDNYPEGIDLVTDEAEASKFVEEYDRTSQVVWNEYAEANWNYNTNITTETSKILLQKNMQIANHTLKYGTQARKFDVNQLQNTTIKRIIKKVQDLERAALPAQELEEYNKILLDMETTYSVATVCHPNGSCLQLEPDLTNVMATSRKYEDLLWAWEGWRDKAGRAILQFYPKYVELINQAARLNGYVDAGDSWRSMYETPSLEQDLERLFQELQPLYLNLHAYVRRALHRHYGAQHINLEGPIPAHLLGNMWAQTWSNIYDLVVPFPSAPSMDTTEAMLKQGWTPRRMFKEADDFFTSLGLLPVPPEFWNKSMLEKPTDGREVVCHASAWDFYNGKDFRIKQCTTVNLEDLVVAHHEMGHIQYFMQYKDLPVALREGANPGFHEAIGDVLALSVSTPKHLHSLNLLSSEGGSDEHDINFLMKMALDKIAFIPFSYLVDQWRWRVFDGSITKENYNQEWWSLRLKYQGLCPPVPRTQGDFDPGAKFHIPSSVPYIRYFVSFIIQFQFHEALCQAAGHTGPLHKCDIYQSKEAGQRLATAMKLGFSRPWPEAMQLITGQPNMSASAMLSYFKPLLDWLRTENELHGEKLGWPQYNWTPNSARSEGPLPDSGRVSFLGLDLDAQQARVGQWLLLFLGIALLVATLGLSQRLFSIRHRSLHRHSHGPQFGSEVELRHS
ACE, sequence (P12821 30-1306, species assumed): as above

In the case of `CC[C@H](C)[C@H](N)C(=O)NCC(=O)N[C@@H](CC(=O)O)C(=O)N[C@@H](CCC(=O)O)C(=O)N1CCC[C@H]1C(=O)N[C@@H](CCCNC(=N)N)C(=O)N[C@@H](Cc1c[nH]cn1)C(=O)N[C@@H](CCC(N)=O)C(=O)N[C@@H](Cc1ccc(O)cc1)C(=O)N[C@@H](CC(C)C)C(=O)O` [IGDEPRHQYL] (H-IGDEPRHQYL-OH), the IC50 in data set [1] was found to be 5.68 µM. Affinity in data set [2] was put at a Ki of 5.46 µM. Besides, the “ACE-inhibitory activity before and after simulated GI digestion” value in data set [3] is recorded as “retained their ACE-inhibitory activity”.

As to `CC[C@H](C)[C@H](N)C(=O)N[C@H](C(=O)NCC(=O)N[C@@H](CCCNC(=N)N)C(=O)N1CCC[C@H]1C(=O)N[C@@H](CC(C)C)C(=O)N[C@@H](C)C(=O)N[C@@H](CC(N)=O)C(=O)NCC(=O)O)C(C)C` [IVGRPLANG] (H-IVGRPLANG-OH), the IC50 in data set [1] was 23.8 µM. In data set [2], this compound had a Ki of 51.4 µM. For the same compound, in data set [3], the “ACE-inhibitory activity before and after simulated GI digestion” value is on record as “retained their ACE-inhibitory activity”.

As a reminder, the IC50 is the concentration at which inhibition is half-maximal. The Ki is the dissociation constant of the complex between target and ligand, obtained from inhibition or displacement. Read a low Ki as a stronger hold on the target.
